Reference: patent US20260070945A1, “MACROCYCLIC IMMUNOMODULATORS” (Bristol-Myers Squibb Company, priority 2022, published 2026)
Where a SMILES comes first, the peptide text is derived from it. Bridges are numbered along the chain shown (N, C = ends). [ ]: non-standard residue; d: D form. The star is where a group is joined. ξ: configuration not given here. Phe(3-CF3) = N[C@@H](Cc1cccc(C(F)(F)F)c1)C(=O)O; Phe(4-CF3) = N[C@@H](Cc1ccc(C(F)(F)F)cc1)C(=O)O; Phe(4-COOH) = N[C@@H](Cc1ccc(C(=O)O)cc1)C(=O)O; Bip = N[C@@H](Cc1ccc(-c2ccccc2)cc1)C(=O)O; NH(CH2)14COOH = O=C(O)CCCCCCCCCCCCCCN*; Phe(3-Me) = Cc1cccc(C[C@H](N)C(=O)O)c1; Abu(3S-NH2) = C[C@H](N)[C@H](N)C(=O)O; NH(CH2)12COOH = O=C(O)CCCCCCCCCCCCN*; Val(3-OH) = CC(C)(O)[C@H](N)C(=O)O; 4Pal = N[C@@H](Cc1ccncc1)C(=O)O; 3Thi = N[C@@H](Cc1ccsc1)C(=O)O; Cha = N[C@@H](CC1CCCCC1)C(=O)O; Cit = NC(=O)NCCC[C@H](N)C(=O)O; Ile(3ξ) = CCC(C)[C@H](N)C(=O)O; Thr(3ξ) = CC(O)[C@H](N)C(=O)O; hSer = N[C@@H](CCO)C(=O)O; Carboxymethyl = O=C(O)C*; NMeA = CN[C@@H](C)C(=O)O; Orn = NCCC[C@H](N)C(=O)O; Aun = NCCCCCCCCCCC(=O)O; Dab = NCC[C@H](N)C(=O)O; Dap = NC[C@H](N)C(=O)O; AEEA = NCCOCCOCC(=O)O

Target: T1, PD-1/PD-L1 interaction (PE-labeled human PD-L1-Ig binding to Jurkat cell line over-expressing human PD-1) (Homo sapiens, UniProt Q15116)
T1 construct: expressed in transfected cells; host or cells: Jurkat
T1 sequence (Q15116 25-288): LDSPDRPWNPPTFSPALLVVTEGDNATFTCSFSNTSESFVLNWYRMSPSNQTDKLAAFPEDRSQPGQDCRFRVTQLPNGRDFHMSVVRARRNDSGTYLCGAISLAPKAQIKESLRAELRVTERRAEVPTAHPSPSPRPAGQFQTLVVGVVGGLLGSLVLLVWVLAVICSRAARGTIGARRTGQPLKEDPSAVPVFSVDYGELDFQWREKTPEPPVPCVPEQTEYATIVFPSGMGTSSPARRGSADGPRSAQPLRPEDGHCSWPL
Assay: Jurkat-PD-1 Cell Binding High-Content Screening Assay (CBA)
Conditions: Jurkat-hPD-1 cells, PE-labeled PD-L1-Ig 20 nM final; read-out: Jurkat HPD1 PDL1 IC50
Summary of the method: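 High-content imaging read-out of PE-PD-L1-Ig binding (20 nM final, 1 h) to Jurkat-hPD-1 cells, after 2 h compound exposure at 37 °C in DMEM with 10% FCS. Nuclei counterstained with Hoechst 33342 after paraformaldehyde fixation.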

Row | IC50 [nM] | SMILES
1 | 132 | CCC(C)[C@@H]1NC(=O)[C@H](Cc2ccc(-c3ccccc3)cc2)NC(=O)[C@H](CC(C)C)NC(=O)[C@H](Cc2cccc(C)c2)NC(=O)[C@H](CC(=O)O)NC(=O)[C@H](Cc2ccc(O)cc2)NC(=O)[C@H](Cc2ccccc2)NC(=O)CSC[C@@H](C(=O)N[C@@H](CN)C(=O)NCCCCCCCCCCC(=O)O)NC(=O)[C@H](CCCN)NC(=O)[C@H](C(C)C)NC(=O)[C@H](CC(C)C)NC(=O)[C@H](CCN)NC(=O)[C@@H](C)NC(=O)[C@H](C)N(C)C1=O (stereo partly drawn) [Example 2199] ({CH2CO}-FYD[Phe(3-Me)]L[Bip][Ile(3ξ)][NMeA][dA][Dab]LV[Orn]C[Dap][Aun]-OH; thioether N-14)
2 | 92.1 | Cc1cccc(C[C@@H]2NC(=O)[C@H](CC(=O)O)NC(=O)[C@H](Cc3ccc(C(=O)O)cc3)NC(=O)[C@H](Cc3ccc(OCC(=O)O)cc3)NC(=O)CSC[C@@H](C(=O)N[C@@H](CC(=O)O)C(=O)NCCCCCCCCCCC(=O)O)NC(=O)[C@H](CO)NC(=O)[C@H](C(C)C)NC(=O)[C@H](CC(C)C)NC(=O)[C@H](CC(N)=O)NC(=O)[C@@H](CC(C)C)NC(=O)[C@H](C)N(C)C(=O)[C@H](C(C)C)NC(=O)[C@H](Cc3ccc(-c4ccccc4)cc3)NC(=O)[C@H](CC(C)C)NC2=O)c1 [Example 1001] ({CH2CO}-Y(Carboxymethyl)[Phe(4-COOH)]D[Phe(3-Me)]L[Bip]V[NMeA][dL]NLVSCD[Aun]-OH; thioether N-14 (inferred))
3 | 7.9 | CC(C)C[C@H]1NC(=O)[C@H](C)N(C)C(=O)[C@H](CCCNC(N)=O)NC(=O)[C@H](Cc2ccc(-c3ccccc3)cc2)NC(=O)[C@H](Cc2ccc(C(=O)O)cc2)NC(=O)[C@H](Cc2cccc(C(F)(F)F)c2)NC(=O)[C@H](CC(=O)O)NC(=O)[C@H](Cc2ccc(OCC(=O)O)cc2)NC(=O)[C@H]([C@H](C)N)NC(=O)CSC[C@@H](C(=O)N[C@@H](CCN)C(=O)NCCCCCCCCCCCCC(=O)O)NC(=O)[C@H](CCC(=O)O)NC(=O)[C@H](C(C)C)NC(=O)[C@H](CC2CCCCC2)NC(=O)[C@H](CCN)NC1=O [Example 1194] ({CH2CO}-[Abu(3S-NH2)]Y(Carboxymethyl)D[Phe(3-CF3)][Phe(4-COOH)][Bip][Cit][NMeA][dL][Dab][Cha]VEC[Dab]-{NH(CH2)12COOH}; thioether N-14)
4 | 40.2 | Cc1cccc(C[C@@H]2NC(=O)[C@H](CC(=O)O)NC(=O)[C@H](Cc3ccc(OCC(=O)O)cc3)NC(=O)[C@H](CCCNC(=N)N)NC(=O)CSC[C@@H](C(=O)N[C@H](CC(N)=O)C(=O)NCCCCCCCCCCC(=O)O)NC(=O)[C@H](CCO)NC(=O)[C@H](C(C)C)NC(=O)[C@H](CC3CCCCC3)NC(=O)[C@H](CCN)NC(=O)[C@@H](CC(C)C)NC(=O)[C@H](C)N(C)C(=O)[C@H](Cc3ccc(OCC(=O)O)cc3)NC(=O)[C@H](Cc3ccc(-c4ccccc4)cc3)NC(=O)[C@H](Cc3ccc(OCC(=O)O)cc3)NC2=O)c1 [Example 2362] ({CH2CO}-RY(Carboxymethyl)D[Phe(3-Me)]Y(Carboxymethyl)[Bip]Y(Carboxymethyl)[NMeA][dL][Dab][Cha]V[hSer]C[dN][Aun]-OH; thioether N-14)
5 | 33.3 | Cc1cccc(C[C@@H]2NC(=O)[C@H](CC(=O)O)NC(=O)[C@H](Cc3ccc(OCC(=O)O)cc3)NC(=O)[C@H](Cc3ccncc3)NC(=O)CSC[C@@H](C(=O)NCCOCCOCC(=O)NCCCCCCCCCCC(=O)O)NC(=O)[C@H](CCCN)NC(=O)[C@H](C(C)C)NC(=O)[C@H](CC3CCCCC3)NC(=O)[C@H](CCN)NC(=O)[C@@H](CC(C)C)NC(=O)[C@H](C)N(C)C(=O)[C@H](Cc3ccc(O)cc3)NC(=O)[C@H](Cc3ccc(-c4ccccc4)cc3)NC(=O)[C@H](CC(C)C)NC2=O)c1 [Example 2218] ({CH2CO}-[4Pal]Y(Carboxymethyl)D[Phe(3-Me)]L[Bip]Y[NMeA][dL][Dab][Cha]V[Orn]C[AEEA][Aun]-OH; thioether N-14)
6 | 18.3 | Cc1cccc(C[C@@H]2NC(=O)[C@H](CC(=O)O)NC(=O)[C@H](Cc3ccc(OCC(=O)O)cc3)NC(=O)[C@H](C(C)O)NC(=O)CSC[C@@H](C(=O)N[C@H](CC(N)=O)C(=O)NCCCCCCCCCCC(=O)O)NC(=O)[C@H](C(C)C)NC(=O)[C@H](C(C)C)NC(=O)[C@H](CC3CCCCC3)NC(=O)[C@H](CCN)NC(=O)[C@@H](CC(C)C)NC(=O)[C@H](C)N(C)C(=O)[C@H](Cc3ccc(OCC(=O)O)cc3)NC(=O)[C@H](Cc3ccc(-c4ccccc4)cc3)NC(=O)[C@H](Cc3ccc(OCC(=O)O)cc3)NC2=O)c1 (stereo partly drawn) [Example 2361] ({CH2CO}-[Thr(3ξ)]Y(Carboxymethyl)D[Phe(3-Me)]Y(Carboxymethyl)[Bip]Y(Carboxymethyl)[NMeA][dL][Dab][Cha]VVC[dN][Aun]-OH; thioether N-14)

Same assay, conditions: PE-labeled PD-L1-Ig 20 nM final, Jurkat-hPD-1 cells; read-out: Jurkat HPD1 PDL1 IC50

Row | IC50 [nM] | SMILES
7 | 210 | CC(=O)NCCCC[C@@H]1NC(=O)[C@H](C(C)(C)O)NC(=O)[C@H](CC2CCCCC2)NC(=O)[C@H](CCN)NC(=O)[C@@H](CC(C)C)NC(=O)[C@H](C)N(C)C(=O)[C@H](CCC(N)=O)NC(=O)[C@H](Cc2ccc(-c3ccccc3)cc2)NC(=O)[C@H](Cc2ccc(C(F)(F)F)cc2)NC(=O)[C@H](Cc2cccc(C)c2)NC(=O)[C@H](CC(=O)O)NC(=O)[C@H](Cc2ccc(OCC(=O)O)cc2)NC(=O)[C@H](Cc2ccc(OCC(=O)O)cc2)NC(=O)CSC[C@@H](C(=O)N[C@@H](CCN)C(=O)NCCCCCCCCCCCCCCC(=O)O)NC1=O [Example 2618] ({CH2CO}-Y(Carboxymethyl)Y(Carboxymethyl)D[Phe(3-Me)][Phe(4-CF3)][Bip]Q[NMeA][dL][Dab][Cha][Val(3-OH)]K(Ac)C[Dab]-{NH(CH2)14COOH}; thioether N-14)
8 | 9 | CC(=O)NCCCC[C@@H]1NC(=O)[C@H](C(C)(C)O)NC(=O)[C@H](CC2CCCCC2)NC(=O)[C@H](CCN)NC(=O)[C@@H](CC(C)C)NC(=O)[C@H](C)N(C)C(=O)[C@H](CCC(N)=O)NC(=O)[C@H](Cc2ccc(-c3ccccc3)cc2)NC(=O)[C@H](Cc2ccc(OCC(=O)O)cc2)NC(=O)[C@H](Cc2cccc(C(F)(F)F)c2)NC(=O)[C@H](CC(=O)O)NC(=O)[C@H](Cc2ccc(OCC(=O)O)cc2)NC(=O)[C@H](CC(C)C)NC(=O)CSC[C@@H](C(=O)N[C@@H](CCN)C(=O)NCCCCCCCCCCCCC(=O)O)NC1=O [Example 2626] ({CH2CO}-LY(Carboxymethyl)D[Phe(3-CF3)]Y(Carboxymethyl)[Bip]Q[NMeA][dL][Dab][Cha][Val(3-OH)]K(Ac)C[Dab]-{NH(CH2)12COOH}; thioether N-14)
9 | 18.1 | CCC(C)[C@@H]1NC(=O)[C@H](Cc2ccc(-c3ccccc3)cc2)NC(=O)[C@H](CC(C)C)NC(=O)[C@H](Cc2c[nH]c3ccccc23)NC(=O)[C@H](CC(=O)O)NC(=O)[C@H](Cc2ccc(OCC(=O)O)cc2)NC(=O)[C@H](Cc2ccsc2)NC(=O)CSC[C@@H](C(=O)N[C@@H](CCN)C(=O)NCCOCCOCC(=O)NCCCCCCCCCCC(=O)O)NC(=O)[C@H](CCC(=O)O)NC(=O)[C@H](C(C)(C)O)NC(=O)[C@H](CC2CCCCC2)NC(=O)[C@H](CCN)NC(=O)[C@@H](CC(C)C)NC(=O)[C@H](C)N(C)C1=O (stereo partly drawn) [Example 2510] ({CH2CO}-[3Thi]Y(Carboxymethyl)DWL[Bip][Ile(3ξ)][NMeA][dL][Dab][Cha][Val(3-OH)]EC[Dab][AEEA][Aun]-OH; thioether N-14)
